Consider four compounds from patent US20080269335A1, “Crth2 Receptor Antagonists” (priority 2004, published 2008).

pIC50, pKi: −log10 of the molar value. Like-named read-outs stand apart in the source and are kept apart here.

Assay [1] concerns the target T1, CRTh2 receptor (Homo sapiens, UniProt Q9Y5Y4).
T1 sequence (Q9Y5Y4 1-395): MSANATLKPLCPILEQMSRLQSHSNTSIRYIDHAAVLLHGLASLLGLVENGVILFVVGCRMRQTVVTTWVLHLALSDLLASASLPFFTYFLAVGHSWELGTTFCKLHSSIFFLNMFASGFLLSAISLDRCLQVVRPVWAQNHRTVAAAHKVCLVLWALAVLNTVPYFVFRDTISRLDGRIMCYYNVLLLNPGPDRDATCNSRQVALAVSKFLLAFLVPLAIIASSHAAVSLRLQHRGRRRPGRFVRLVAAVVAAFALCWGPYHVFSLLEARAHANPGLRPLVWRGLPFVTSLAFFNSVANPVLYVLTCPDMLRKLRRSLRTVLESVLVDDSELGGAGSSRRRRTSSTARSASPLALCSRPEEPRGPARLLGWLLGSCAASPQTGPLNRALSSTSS
Put plainly: Scintillation Proximity Assay (SPA) binding assay, 3H prostaglandin D2. Also noted: expressed in transfected cells; host or cells: K562 or CHO cells (membranes). The protocol:
Scintillation Proximity Assay (SPA) Protocol
Membranes are prepared from K562 or Chinese hamster ovary (CHO) cells stably transfected with human CRTh2 receptors.
The assay is performed in a 96 well U-bottomed polypropylene plate in a final volume of 100 μL. For each concentration of test compound on the dose-response curve, the components of the assay are added sequentially as follows: test compound in DMSO/assay buffer (25 μL), ^3H prostaglandin D2 (25 μL) and CRTh2 membrane fragments (50 μL). The assay is incubated at ambient temperature with shaking for 60 minutes, and then harvested on to filter plates. The plate is dried for 2 hours, prior to addition of Micro-Scint 20™ (50 μL) and sealing with TopSeal-S™. Plates are then counted using a Packard Top Count instrument, each well being counted for 20 minutes. Ki values are determined using Sigma Plot™ software, using the Cheng-Prussoff equation.
A general note: SPA uses beads or plates that emit light when radiolabelled molecules are held near them.

The target in assay [2] is T1, CRTh2 receptor. Put plainly: CRTh2 cAMP functional assay. Also on record: expressed in transfected cells; host or cells: CHO cells. It counts as cell-based. To be noted: CHO cells stably transfected with CRTh2; 10 nM Prostaglandin D2 and 5 μM forskolin; cAMP Alphascreen. Here is the method:
CRTh2 cAMP Functional Assay Protocol
For each concentration value on the dose-response curve, test compounds are prepared in assay stimulation buffer/DMSO and 5 μL/well is added to an assay plate (384 well, white optiplate).
CHO cells stably transfected with the CRTh2 receptor are prepared (dissociated from a cell culture flask and washed in PBS) to a concentration of 4×10^6/mL in assay stimulation buffer and added to the assay plate ([…]).
The assay plate is incubated at room temperature on a shaker for 15 minutes.
A mix of agonist (10 nM Prostaglandin D2) and 5 μM forskolin is prepared in assay stimulation buffer and added to the assay plate (5 μL/well).
In addition, a cAMP standard is serially diluted in assay stimulation buffer and added to separate empty wells on the assay plate (20 μL/well).
The assay plate is incubated at room temperature on a shaker for 60 minutes.
A cell lysis mix (lysis buffer containing Alphascreen™ donor beads and biotinylated cAMP) is prepared under darkened conditions 60 minutes prior to addition. Alphascreen™ acceptor beads are added to the lysis mix after 60 minutes. The resulting lysis mix is added to all wells of the assay plate (40 μL/well).
The assay plate is sealed with Topseal-S™ and incubated in the dark at room temperature on a shaker for 45 minutes. The plate is then counted using a Packard Fusion™ instrument.
The resulting counts per minute are converted to nM cAMP by using the prepared cAMP standard curve. IC50 values are then determined using Prism™ software.
On the technique in general: In Alpha technology, singlet oxygen from a donor bead excites a nearby acceptor bead.

[3] abbreviates: membranes from K562 or CHO cells stably transfected with human CRTh2, 3H prostaglandin D2, read-out: Ki values in the SPA binding assay.

As a reminder, the pKi is the Ki on a negative log10 scale, so that one unit is a factor of ten. The term pIC50 denotes −log10 of the IC50, conventionally taken in molar units. A high value points to a small IC50.

In assay [1], `O=C(O)COc1ccc(Cl)cc1C1CCCCCC1` [Example 2, (4-Chloro-2-cycloheptylphenoxy)acetic acid] had a pKi of 7.22. Further, the pIC50 in assay [2] was 6.83.
In turn, `O=C(O)COc1ccc(Br)cc1C1CCCCC1` [Example 3, (4-Bromo-2-cyclohexylphenoxy)acetic acid] had a pIC50 in assay [2] of 6.72.
As for `O=C(O)COc1ccc(Br)cc1C1CCCCCC1` [Example 5, (4-Bromo-2-cycloheptylphenoxy)acetic acid], the pKi in assay [1] (setting [3]) was 7.15. Also, the pIC50 in assay [2] is 6.86.
The matching figures for `O=C(O)COc1ccc(C(F)(F)F)cc1C1CCCCC1` [Example 13, (2-Cyclohexyl-4-trifluoromethyl-phenoxy)-acetic acid]: 7.68 and 6.86.
